How the values were obtained:
soybean plant crop [1] = assay: Field test runs: acceleration of senescence/maturation and time to harvest of soybean crop after spraying at a reproductive growth stage; format: in vivo
From the text: The solution of 2-chloroethylphosphonic acid may be prepared by mixing together 2-chloroethylphosphonic acid (known as ethephon in liquid form and obtainable from a number of sources) with a water solution or a liquid medium that is non-toxic to the particular legume desired. Most commercial sprayers are suitable for preparation and/or application of the solution described herein. To prepare the mixture, during test runs, a tank comprising a capacity of 600 gallons and an agitator was used. Continuous agitation of the mixture during preparation seems to provide best results.
In some embodiments, the 2-chloroethylphosphonic acid solution may comprise a water-soluble urea comprising approximately 46% nitrogen. A dry form of nitrogen may be part of the water solution or it may be part of the 2-chloroethylphosphonic acid solution with suitable mixing. Mixing is performed continuously in certain embodiments. During some test runs, approximately 4 pounds of urea per acre was added to about 10 gallons (83.4 pounds) of water per acre, followed by approximately 1.5 pounds of 2-chloroethylphosphonic acid per acre. In some embodiments, the 2-chloroethylphosphonic acid may also comprise a spreader-sticker. The spreader-sticker may be added, for example, at a rate of 2 ounces (0.125 pounds) per acre and may be silicone-based. A suitable silicone-based spreader-sticker, for example, is Kinetic by Helena. Other non-silicone-based sticker-spreaders may also be used.
Application of the 2-chloroethylphosphonic acid solution should be performed when the leguminous plant crop comprises at least 50% of the planted crops in the field at a seed growth stage. In some embodiments, the leguminous plant may be at an R5 growth stage when application of the solution described herein is performed. During R5, a fully developed seed pod may comprise, for example, a match-head sized seed in the pod. In some embodiments, the leguminous plant may be at growth stage R5.5, or between R5 and R6 for application. In some embodiments, application is performed when at least 50% of the planted leguminous plant crop is at an R6 reproductive growth stage, as described above. For example, R6 may be visually characterized or identified when at least 50% of the leguminous plant crop comprises at least one seed or “green bean” (in a top pod of the plant) comprising a width equal to its pod cavity. In some embodiments, the leguminous plant may be at growth stage R6.5, or at or between R6 and R7. During some test runs, senescence was achieved within 5 days after application of the solution described herein, with successful harvesting of quality crop. By way of example, prior to application, the physiological stage of the leguminous plant may be determined by inspecting the terminal (or last growing point at the top) end of the leguminous plant crop for a seed pod. Triggering maturation at the R5 growth stage may produce smaller seeds. For commercial production, triggering at R6 may be most successful to obtain more seed at a greater weight.
Application of the solution described herein may perform best at temperatures below 98° F. In some embodiments, application of the solution is performed at a temperature below about 90° F. Successful test runs, by way of example, described below were performed at 88° F.
During trial runs, soybean plant crops were planted on plot sizes ranging from 25-150 acres. Soybean plant crops were planted on soil used for rotational crops including, for example, grass crop, corn crop, or grain crop. Crops were seeded approximately 1-1.5 inches deep with a twin line planter. No other pretreatments were performed on the soil during test runs. Ground application was performed on raised beds using a flow jet capable of delivering a minimum of 10-20 gallons per acre. Raised beds were used during some test runs. Furrow irrigation was used to water the soybean plant crop, applying water to the top end of each furrow. […]

soybean plant crop [2] = assay: Composition, yield and seed quality analysis of harvested soybeans after spraying at R6; format: in vivo
Procedure: During trial applications of the solutions described herein, composition, yield and seed quality was analyzed. It was discovered that even under challenges such as hotter than normal temperatures and drought conditions, the solutions described herein allow for manipulation of the seasons for advantageous harvesting of high quality soybeans. Soybean crop (variety “Linda,” a group 5.6 determinate soybean) was planted in 8-24 row strips following a fall corn crop. Herbicide was applied at 3 pints/acre and crop was fertilized with 20 gallons of 32-0-0 per acre, followed by irrigation as needed. Soil maps indicated two different soil types (Harlingen clay and Olmito clay) in the field that bisected the field, with the second replication having slightly less Olmito clay in the treated area. As they are both components of the other, the field was consistent to visual observation. […] The growth stage of the beans at this point is still very rapid but the dry weight and nutrient accumulation begins to slow in the whole plant by R6.5 which is just 7-10 days later in many cases. Another indicator of the R6 stage is visual signs of senescence in the older leaves of the plants.
Sprayer comprising the 2-chloroethylphosphonic acid solution was prepared and applied as described above at the following rates of Table. 1. Weather conditions at the time of spraying can be found in Table 2.
The sprayed crops were monitored daily to observe phenotypic changes which included leaf color, leaf drop, pod desiccation, and any visual between treatments. After two days post-spraying, photographs were taken to show the changes in color due to senescense taking place.
Harvest was slightly delayed (about 3 days) due to unavailability of the combine, however, even with this delay, harvested crops were sent for composition and seed quality parameters. The actual harvest during these test runs was well below a soybean moisture content of a market standard 13%.
The 0.75 pounds of the 2-chloroethylphosphonic acid solution per acre rate was highest in crude fat, crude protein, digestible energy and total digestible nutrients (TDN) while being lowest in crude fiber. […] FIGS. 1 through 4 illustrate major nutritional components affected by treatment rate, where the term “a.i.” is meant to refer to the 2-chloroethylphosphonic acid solution described above. FIG. 1 is a graph of crude protein affected by treatment rate of 2-chloroethylphosphonic acid solution according to an embodiment. FIG. 2 is a graph of crude fat affected by treatment rate of 2-chloroethylphosphonic acid solution according to an embodiment. FIG. 3 is a graph of crude fiber affected by treatment rate of 2-chloroethylphosphonic acid solution according to an embodiment. FIG. 4 is a graph of total digestible nutrients affected by treatment rate of 2-chloroethylphosphonic acid solution according to an embodiment.

With `O=P(O)(O)CCCl` [2-chloroethylphosphonic acid] the “acceleration of maturation in soybean plants” value (soybean plant crop [1]; about 0.375 pounds per acre at the R-6 stage) was “significant acceleration of maturation”, the “accelerated maturation of a soybean plant” value (soybean plant crop [1]; about 0.75 pounds per acre at the R-6 reproductive growth stage) was “Accelerated maturation” and the “harvesting stage reached sooner than without spraying” value (soybean plant crop [1]; following application at a reproductive growth stage) was 10 to 14 days. For the same compound, the “maturation achieved faster than when not treated” value (soybean plant crop [1]; in some cases, high temperature and high humidity environments) was “up to 40 days”, the “days shaved off waiting times” value (soybean plant crop [1]; in some cases, versus typical minimum 39-day period) was “about 30 days” and the “time to senescence after application” value (soybean plant crop [1]; some test runs) was ≤ 5 days. For the same compound, the germination rate (soybean plant crop [1]; trial runs, 25-150 acre plots) was ≥ 90%, the “total digestible nutrients (TDN) (rank among treatments)” value (soybean plant crop [2]; 0.375 pounds per acre, R6) was “Ranked behind that in TDN” and the “crude fat (rank among treatments)” value (soybean plant crop [2]; 0.75 pounds per acre, R6) was “highest”. The “crude fiber (rank among treatments)” value (soybean plant crop [2]; 0.75 pounds per acre, R6) was “lowest”, the “crude protein (rank among treatments)” value (soybean plant crop [2]; 0.75 pounds per acre, R6) was “highest” and the “digestible energy (rank among treatments)” value (soybean plant crop [2]; 0.75 pounds per acre, R6) was “highest”. For the same compound, the “total digestible nutrients (TDN) (rank among treatments)” value (soybean plant crop [2]; 0.75 pounds per acre, R6) was “highest” and the “overall nutrients versus untreated” value (soybean plant crop [2]; all three treatments (0.375, 0.75, 1.125 pounds per acre)) was “improved overall nutrients”.
